{
  "source": "patent US6107549A",
  "about": "“Genetically engineered plant resistance to thiazopyr and other pyridine herbicides” (Monsanto Company, priority 1999, dated 2000)",
  "key": {"pyridine-esterase": {"system": "pyridine-esterase", "format": "biochemical, rabbit", "procedure": "Esterase activity assays. Esterase activity was measured in vitro by conversion of either [^14 C]thiazopyr or [^14 C]MON 14300 to their corresponding monoacid. Pyridine-esterase activity was assayed during protein purification and from tissue extracts of transgenic plants. The homogenizing buffer for plant tissues consisted of 100 mM Tris pH 8.0, 1 mM EDTA, 1 mM DTT, and 10% glycerol in water. Plant tissues (1 g/ml buffer) including leaves, seeds, flowers, seedlings, etc. were homogenized in conical centrifuge tubes using a spinning pestle at 4° C. Following centrifugation (12,000× g), the supernatant (250 μl) was assayed immediately for esterase activity by incubation with [^14 C]thiazopyr or [^14 C]MON 14300 (4 μg) in 0.1 M Tris pH 8.0 buffer (50 μl) at 37° C. The reaction was sampled (100 μL) at various times (0.5 to 100 hr) to generate a kinetic profile of monoacid formation. The reaction was stopped by addition of 1% trifluoroacetic acid in acetonitrile (v/v, 150 μl). Following centrifugation (12,000× g for 3 min), the supernatant was analyzed by HPLC/RAD (radioactivity detection) to resolve the monoacid from the parent herbicide and other metabolites. Control reactions in the absence of the esterase recovered un-reacted thiazopyr or MON 14300 for the duration of experiments. Esterase activity was also assayed during protein purification following a similar procedure except a single time-point (1-2 hrs) of incubation was selected within the linear range of reaction. In vitro assays also employed three commonly used calorimetric (p-nitrophenyl butyrate) or fluorescent (4-methyl umbelliferyl butyrate and 5-bromo-4-chloro-3-indolylacetate) substrates. These substrates are useful in rapidly and qualitatively detecting general esterase activity.\nTissue extracts from 3 tobacco R1 seedlings were employed for further studies. Two of the lines (#37437 and #37432) expressed high levels of esterase (~0.5%) and one line (#37436) which expressed no pyridine-esterase was used as negative control. Tissue extracts were incubated with [^14 C]MON 14300 and formation of the monoacid monitored with time. […] In comparison, less that 2% monoacid was detected in line (#37436). […] First, pyridine-esterase was capable of driving the hydrolysis reaction to completion with no apparent product inhibition, and second, there was no endogenous esterase activity in tobacco which catalyzed MON 14300 hydrolysis."}, "tomato [1]": {"system": "tomato", "assay": "Field test for tomato resistance", "format": "in vivo", "procedure": "Field test for tomato resistance. A single field test was conducted in early summer at a Monsanto Company research farm in Jerseyville, Ill. A total of 9 transgenic lines were selected for the field study. […] The remaining 6 lines were R1 seeds selected based on high expression level and seed availability. About 400 seeds were pooled from each line based on uniformity of size and appearance, and randomly separated into 4 groups of about 100 seeds. Four parallel plots (5×20 m) were respectively sprayed with 0, 112, 336, and 673 g/ha of thiazopyr, which was then incorporated down to 7.5 cm of soil depth. The projected field use-rate for thiazopyr is about 280 g/ha. Seeds were placed in a furrow at every 5 cm distance and covered with soil. UC82B seeds were used as untransformed controls. After sowing, 13 mm of water was irrigated over the plots. […] Nevertheless, it was possible to measure thiazopyr resistance based on seedling emergence between control UC82B and the transgenic lines. […] However at 336 g/ha, #8255-30 maintained germination at 10% while UC82B declined to about 1%. […] The transgenic lines flowered, set fruit, and yielded abundant tomatoes and seeds."}, "tomato [2]": {"system": "tomato", "assay": "Greenhouse test, pre-plant incorporation (PPI)", "format": "in vivo", "settings": "21 DAT", "procedure": "Green house test for tomato resistance. Similar studies were also conducted in greenhouse with pre-plant incorporation (PPI) of thiazopyr into the soil. During pre-emergence application of thiazopyr, it is possible that cracks in soil may allow seedlings to escape from exposure to thiazopyr that was sprayed on the soil surface. One way to prevent such escapes is to apply thiazopyr with pre-plant incorporation (PPI). In this method of application, thiazopyr is first incorporated into the soil and seeds are sowed directly into that soil. PPI application of thiazopyr can cause the most plant injury and therefore require lower rates of thiazopyr application.\nTomato seeds were planted in 100 cm^2 pots filled with a sterilized silty loam soil (510 g). Seeds were placed on top of soil, and covered with additional soil (135 g) which was premixed with thiazopyr at equivalent use rates of 0, 34, 45, 67, and 140 g/ha. Greenhouse growing conditions were: 29° C. day to 21° C. night with supplemental lighting as needed to maintain 200-900 μE.\nIn order to be certain that tomato resistance to thiazopyr in the above PE experiment was not due to escapes, a further experiment in the greenhouse using conducted using PPI application. Plants were visually rated at 21 days after treatment (DAT) based on comparison of % growth to untreated plants, and the results are presented in the bar chart in FIG. 6. […] At the 45 g/ha rate, UC82B was severely injured (10% growth) and the transgenics lines minimally injured (90% growth). At the 67 g/ha rate, UC82B plants were dead and the transgenics were stunted at 40 to 50% growth. […] Both #8255 and #8230 lines expressed the pyridine-esterase at 0.05% of total protein. The term `resistance` in all of these examples can also be expressed as a recombinantly acquired tolerance to the applied levels or rates of pyridine herbicide."}},
  "data": [
    {"smiles": "COC(=O)c1c(C(F)F)nc(C(F)(F)F)c(C(=O)n2cccn2)c1CC(C)C", "note": "[MON 14300]", "values": [
      {"measurement": "hydrolysis to monoacid metabolite", "setting": "pyridine-esterase; non-expressing line #37436, FIG. 3", "result": "no hydrolysis"},
      {"measurement": "monoacid detected", "setting": "pyridine-esterase; tobacco, seedling tissue extract", "result": "< 2", "unit": "%"}
    ]},
    {"smiles": "COC(=O)c1c(C(F)F)nc(C(F)(F)F)c(C2=NCCS2)c1CC(C)C", "note": "[thiazopyr]", "values": [
      {"measurement": "germination", "setting": "tomato [1]; UC82B and #8255-30, 112 g/ha, 21 days after planting", "result": "slightly lower but still comparable germination"},
      {"measurement": "germination", "setting": "tomato [1]; UC82B control, 336 g/ha", "result": "about 1%"},
      {"measurement": "germination", "setting": "tomato [1]; UC82B control, 673 g/ha", "result": "no germination at all"},
      {"measurement": "survival at later time points", "setting": "tomato [1]; UC82B plants that germinated at 112 and 336 g/ha", "result": "had died due to weakening of the stem at the soil line"},
      {"measurement": "germination", "setting": "tomato [1]; transgenic #8255-30, 336 g/ha", "result": 10, "unit": "%"},
      {"measurement": "germination", "setting": "tomato [1]; transgenic #8255-30, 673 g/ha", "result": 4, "unit": "%"},
      {"measurement": "growth at later time points", "setting": "tomato [1]; transgenic lines showing thiazopyr injury", "result": "growth was not affected"},
      {"measurement": "% growth compared to untreated plants", "setting": "tomato [2]; UC82B control, 34 g/ha PPI", "result": 75, "unit": "%"},
      {"measurement": "% growth compared to untreated plants", "setting": "tomato [2]; UC82B control, 45 g/ha PPI", "result": 10, "unit": "%"},
      {"measurement": "plant condition", "setting": "tomato [2]; UC82B control, 67 g/ha PPI", "result": "dead"},
      {"measurement": "% growth compared to untreated plants", "setting": "tomato [2]; transgenic #8255 and #8230, 34 g/ha PPI", "result": 100, "unit": "%"},
      {"measurement": "% growth compared to untreated plants", "setting": "tomato [2]; transgenic #8255 and #8230, 45 g/ha PPI", "result": 90, "unit": "%"}
    ]}
  ]
}
